Test results: paper PMC10532587, “An Investigation of Structure–Activity Relationships and Cell Death Mechanisms of the Marine Alkaloids Discorhabdins in Merkel Cell Carcinoma Cells” (Marine Drugs, 2023)
Like-named read-outs stand apart in the source and are kept apart here.

Experiments:
MCC cell lines = assay: Cell survival by CellTiterGlo, MCC cell lines together; assay type: cell-based; details: average over MCC cell lines
Description: (§1) Three methods were employed for assessment of MCC and control cell survival/viability after discorhabdin treatment, two metabolic assays and a cell permeability assay. For all three methods, cells were plated in 384-well plates at 2500 cells/well and treated with various concentrations of discorhabdins for various time periods. CellTiterGlo^TM (Promega, Madison, WI, USA) measures cellular ATP content and was used to estimate potency of discorhabdins in cell viability assays as previously described. Continuous monitoring of metabolic activity was accomplished using a cellular reducing potential luminescence assay, the RealTime-Glo^TM MT Cell Viability Assay (Promega, Madison, WI, USA) according to manufacturer’s instructions. Loss of cell plasma membrane integrity was assessed using a cell-impermeant molecule that becomes fluorescent upon binding DNA [82] in parallel with apoptosis detection per manufacturer’s instructions (RealTimeGlo^TM Annexin V Apoptosis and Necrosis Assay-Promega). Two additional assays of apoptotic cell death were also used. Caspase activation in response to treatment of MCC cells by discorhabdins or bortezomib (as a positive control) was measured using the CaspaseGlo® 3/7 Assay (Promega, Madison, WI, USA) according to the manufacturer’s instructions at multiple time points. Inhibition of apoptotic cell death was investigated using pre-treatment of cells with for 1 h with the pan-caspase inhibitor Z-VAD-FMK (Enzo Life Sciences, Farmingdale, NY, USA) followed by treatment with discorhabdins or bortezomib and estimation of cell viability as outlined above.
(§2) In order to compare responses among all of the discorhabdins and cell lines (98 combinations), dose–response curves were generated using identical discorhabdin dilution series. GraphPad Prism 8 (San Diego, CA, USA) software was utilized to graph dose–response data and to calculate IC50 values and area under the dose–response curves (AUC) along with 95% confidence interval estimates using four-parameter logistic nonlinear regression analysis. For further analysis and comparisons, AUC for each cell line/discorhabdin pair was visualized in a heatmap generated in R version 1.3.1073 (R Core Team (2013). R: A language and environment for statistical computing. R Foundation for Statistical Computing, Vienna, Austria, http://www.R-project.org/ (accessed on 12 January 2023).

[1] = system: VP-MCC cell lines (MKL-1, MKL-2, and Waga); assay: Selectivity VP-MCC versus control cells (average AUC); assay type: cell-based
Text: as §2
(§3) Figure S41: Discorhabdi nselectivity
(§4) Discorhabdin selectivity for VP -MCC and VN- MCCcells was estimated by comparison of activity (average AUC) for each dis corhabdin against VP -MCC (panel A) or VN- MCC (panel B) cell lines compared to control cells . Discorhabdins were sort ed by selectivity from most to least selective. - fold dif fer ence = (av e VN -MCC or VP -MCC AUC/ control AUC). Error bars […]
(§5) (1 picture or pasted object on this page, not shown here)

UISO = assay: Cell survival by CellTiterGlo, VN-MCC line UISO; assay type: cell-based; details: for IC50: CellTiterGlo, normalized to DMSO; for AUC (arbitrary units) UISO: area under the dose-response curve
MCC26 = assay: Cell survival by CellTiterGlo, VN-MCC line MCC26; assay type: cell-based; details: for IC50: CellTiterGlo, normalized to DMSO; for AUC (arbitrary units) MCC26: area under the dose-response curve
Waga = assay: Cell survival by CellTiterGlo, VP-MCC line Waga; assay type: cell-based; details: for IC50: CellTiterGlo, normalized to DMSO; for AUC (arbitrary units) WaGa: area under the dose-response curve
HaCaT = assay: Cell survival by CellTiterGlo, control cells; assay type: cell-based, human; details: for IC50: Homo sapiens, HaCaT; for AUC (arbitrary units) HaCaT: area under the dose-response curve, control cells
MKL-1 = assay: Cell survival by CellTiterGlo, VP-MCC line MKL-1; assay type: cell-based; details: VP-MCC; for IC50: MKL-1, CellTiterGlo, normalized to DMSO, read-out: IC50 (nM) MKL-1; for AUC (arbitrary units) MKL-1: area under the dose-response curve
[2] = system: control (HaCaT) and Merkel cell carcinoma cell lines; assay: Cell survival by CellTiterGlo, all seven cell lines; assay type: cell-based; details: MCC and control cell lines
Description: as §1, §2
Figure S39: Activity of discorhabdins against M CC cell lines.
The indicated discorh abd ins were ass essed for th eir ability to affect surviv al of control (H aCaT) and Merkel cell carcino ma cell lines (VN-MCC: MCC13, MCC26, UISO and VP -MCC: MKL-1, MKL-2, Wag a). Cells were plat ed at 2500 cells/well and compounds the next day. Cell survival was estimated by CellTiterGlo (normalized to untreated (DMSO) cells on the same plate). Structures w ere o btained from the supplier and/or the PubChem database or as described in the text. Number in bold in ( ) refers to structures in Figure 1 in the text. Curves were plotted and IC50 values and 95% confidence interval calculated by GraphPad software. […]

MCC13 = assay: Cell survival by CellTiterGlo, VN-MCC line MCC13; assay type: cell-based; details: for IC50: CellTiterGlo, normalized to DMSO; for AUC (arbitrary units) MCC13: area under the dose-response curve
[3] = system: VN-MCC cell lines (MCC13, MCC26, and UISO); assay: Selectivity VN-MCC versus control cells (average AUC); assay type: cell-based
Text: as §2, §3, §4, §5

MKL-2 = assay: Cell survival by CellTiterGlo, VP-MCC line MKL-2; assay type: cell-based; details: for IC50: CellTiterGlo, normalized to DMSO; for AUC (arbitrary units) MKL-2: area under the dose-response curve
[4] = control skin cell line, CellTiterGlo, normalized to DMSO, read-out: IC50 (nM) HaCaT
[5] = read-out: IC50 for control cells

Structure (SMILES)	averaged potency (IC50) across all MCC cell lines tested (MCC cell lines)	increased activity against VP-MCC compared to the control [1]	IC50 (UISO)	AUC (arbitrary units) UISO (UISO)	IC50 (MCC26)	AUC (arbitrary units) MCC26 (MCC26)	IC50 (Waga)	AUC (arbitrary units) WaGa (Waga)	IC50 (HaCaT; [4])	IC50 (HaCaT; [5])	AUC (arbitrary units) HaCaT (HaCaT)	IC50 (MKL-1)	AUC (arbitrary units) MKL-1 (MKL-1)	activity on cell viability, in words [2]	IC50 (MCC13)	AUC (arbitrary units) MCC13 (MCC13)	increased activity against VN-MCC compared to control cells (fold difference) [3]	IC50 (MKL-2)	AUC (arbitrary units) MKL-2 (MKL-2)
CSC1=CC(=O)C(Br)=C[C@]12C=CNC1=C2C2=NCCc3c[nH]c(c32)C1=O [Compound 8, (+)-(6S) N-13-demethyldiscorhabdin U]	sub-micromolar	> 10 fold	251 nM	32.84 arbitrary units	749 nM	80.16 arbitrary units	86.9 nM	14.83 arbitrary units	1010 nM	≤ 1000 nM	123.3 arbitrary units	22.7 nM	5.221 arbitrary units	one of the most active compounds tested	299 nM	48.65 arbitrary units			
O=C1C(Br)=CC2(C=C1Br)CCNC1=C2C2=NCCc3c(Br)[nH]c(c32)C1=O [Compound 19, 14-bromodiscorhabdin C]	sub-micromolar	> 10 fold	412 nM	88.25 arbitrary units	893 nM	120.6 arbitrary units	249 nM	50.51 arbitrary units	3740 nM		441.7 arbitrary units	37.8 nM	7.189 arbitrary units		511 nM	90.22 arbitrary units	> 3 fold		
O=C1CC2SC3CC2(C=C1Br)C1=C(N3)C(=O)c2[nH]cc3c2C1=NCC3 (single isomer, unassigned; (+)) [Compound 1]	sub-micromolar		54 nM	7.172 arbitrary units	197 nM	88.19 arbitrary units	57 nM	6.873 arbitrary units	273 nM	≤ 1000 nM	29.87 arbitrary units	29 nM	4.944 arbitrary units	most generally toxic compound tested	64 nM	8.589 arbitrary units		48 nM	6.99 arbitrary units
O=C1C=C[C@]2(C=C1Br)CCNC1=C2C2=NCCc3c[nH]c(c32)C1=O [Compound 22, (+)-(6S)-discorhabdin E]	sub-micromolar	> 10 fold	459 nM	53.3 arbitrary units	2000 nM	226.2 arbitrary units	332 nM	36.75 arbitrary units	3010 nM		328.3 arbitrary units	125 nM	14.16 arbitrary units		888 nM	106.9 arbitrary units			
Cc1[nH]c2c3c1CCN=C3C1=C(NCCC13C=C(Br)C(=O)C(Br)=C3)C2=O [Compound 18, 14-methyldiscorhabdin C]		> 10 fold	670 nM	74.19 arbitrary units	3060 nM	329.4 arbitrary units	430 nM	51.75 arbitrary units	5380 nM		584.7 arbitrary units	175 nM	20.95 arbitrary units		1450 nM	159.8 arbitrary units	> 3 fold		
O=C1C=C(SSC2=CC(=O)C(Br)=C[C@]23C=CNC2=C3C3=NCCc4c[nH]c(c43)C2=O)[C@@]2(C=CNC3=C2C2=NCCc4c[nH]c(c42)C3=O)C=C1Br [Compound 10, (−)-(6S,6′S) discorhabdin W]		> 10 fold	1240 nM	162.4 arbitrary units	2560 nM	290.1 arbitrary units	307 nM	40.16 arbitrary units	4860 nM		538.3 arbitrary units	136 nM	18.4 arbitrary units		1380 nM	184.2 arbitrary units		387 nM	55.04 arbitrary units
